Assay results as given in patent publication US20010046478A1, “Antiinfective combinations and their use for the topical treatment of fungal infections of the toenails and fingernails” (priority 2000, published 2001).

Columns and labels:
[1] = Amount of antimycotic in the nail after topical application of the lacquer compositions, HPLC after extraction of distal nail material; assay type: in vivo, human
Experimental: The amount of antimycotic in the nail after application of the compositions according to the invention was determined by HPLC measurements after extraction of distal nail material obtained on cutting the nails of volunteers.
After treatment 2× a week for 6 weeks, the values found for the composition of Example 3 were as follows:
After treatment 2× a week for 2 weeks, the values found for the composition of Example 4 were as follows: […]

[2] = oral administration of 100 mg of itraconazole each day for 3 months; cited from earlier work
[3] = composition of Example 3, topical, treatment 2x a week for 6 weeks, distal nail material of volunteers

amount of antimycotic in the nail [1, 3] | amount of antimycotic in the nail ([1]; composition of Example 4, topical, treatment 2x a week for 2 weeks, distal nail material of volunteers) | amount of antimycotic in the nail ([1]; human, in vivo, 2 weeks) | Compound | itraconazole concentration in the distal nail plate [2]
140 μg/g of nail | 92 μg/g of nail | – | Cc1cc(C2CCCCC2)n(O)c(=O)c1 [ciclopirox, 6-cyclohexyl-1-hydroxy-4-methyl-2(1H)-pyridone] | –
– | – | 17 μg/g of nail | OC(Cn1cncn1)(Cn1cncn1)c1ccc(F)cc1F [fluconazole, α-(2,4-difluorophenyl)-α-(1H-1,2,4-triazol-1-ylmethyl)-1H-1,2,4-triazol-1-ethanol] | –
800 ng/g of nail | – | – | CCC(C)n1ncn(-c2ccc(N3CCN(c4ccc(OCC5COC(Cn6cncn6)(c6ccc(Cl)cc6Cl)O5)cc4)CC3)cc2)c1=O (centres unmarked) [itraconazole] | 100 ng/g of nail
